Source: publication PMC5218480 (PLoS ONE, 2017)

Test system: MV-4-11 cells
Assay: Gene expression microarray analysis (Affymetrix PrimeView) and GSEA
Assay type: cell-based, human
Parameters: RFU PODN (11730768_x_at) / Fold change /veh PODN (11730768_x_at) / RFU LINC00158 (11744669_a_at) / Fold change /veh LINC00158 (11744669_a_at) / RFU DUSP10 (11751237_a_at) / Fold change /veh DUSP10 (11751237_a_at) / RFU ID3 (11757404_x_at) / Fold change /veh ID3 (11757404_x_at) / RFU PLEKHG5 (11737974_s_at) / Fold change /veh PLEKHG5 (11737974_s_at) / RFU LRRC4B (11730491_at) / Fold change /veh LRRC4B (11730491_at) / RFU GIMAP4 (11747438_a_at) / Fold change /veh GIMAP4 (11747438_a_at) / RFU KRT8 (11758183_x_at) / Fold change /veh KRT8 (11758183_x_at) / RFU CNN1 (11734310_a_at) / Fold change /veh CNN1 (11734310_a_at) / RFU VPS37D (11726825_at) / Fold change /veh VPS37D (11726825_at) / RFU C10orf10 (11716522_x_at) / Fold change /veh C10orf10 (11716522_x_at) / RFU KIR2DL2 /// KIR2DL4 /// KIR2DL5A /// KIR2DL5B /// KIR2DS1 /// KIR2DS2 /// KIR2DS3 /// KIR2DS4 /// KIR3DL3 /// KIR3DL3 /// KIR3DS1 (11738374_at) / Fold change /veh KIR2DL2 /// KIR2DL4 /// KIR2DL5A /// KIR2DL5B /// KIR2DS1 /// KIR2DS2 /// KIR2DS3 /// KIR2DS4 /// KIR3DL3 /// KIR3DL3 /// KIR3DS1 (11738374_at) / RFU C1QL1 (11718748_at) / Fold change /veh C1QL1 (11718748_at) / RFU TMPRSS4 (11747572_a_at) / Fold change /veh TMPRSS4 (11747572_a_at) / RFU HAMP (11756126_x_at) / Fold change /veh HAMP (11756126_x_at) / RFU RNFT2 (11725882_a_at) / Fold change /veh RNFT2 (11725882_a_at) / RFU NR4A2 (11747474_a_at) / Fold change /veh NR4A2 (11747474_a_at) / RFU ABCC12 (11746883_a_at) / Fold change /veh ABCC12 (11746883_a_at) / RFU TMEM136 (11760407_x_at) / Fold change /veh TMEM136 (11760407_x_at) / RFU CLDN22 /// WWC2 (11732394_at) / Fold change /veh CLDN22 /// WWC2 (11732394_at) / RFU HLA-DPB1 (11760878_x_at) / Fold change /veh HLA-DPB1 (11760878_x_at) / RFU SPINT1 (11716480_a_at) / Fold change /veh SPINT1 (11716480_a_at) / RFU GAP43 (11754022_s_at) / Fold change /veh GAP43 (11754022_s_at) / RFU A4GNT (11735810_at) / Fold change /veh A4GNT (11735810_at) / RFU PRB3 (11715151_x_at) / Fold change /veh PRB3 (11715151_x_at) / RFU TUBB4B (11761932_at) / Fold change /veh TUBB4B (11761932_at) / RFU CAPN14 (11732068_a_at) / Fold change /veh CAPN14 (11732068_a_at) / RFU TMCC2 (11721928_a_at) / Fold change /veh TMCC2 (11721928_a_at) / RFU IRGQ (11745062_a_at) / Fold change /veh IRGQ (11745062_a_at) / RFU FAM174B (11720279_a_at) / Fold change /veh FAM174B (11720279_a_at) / RFU TMPRSS4 (11748680_a_at) / Fold change /veh TMPRSS4 (11748680_a_at) / RFU FAM212B (11763350_a_at) / Fold change /veh FAM212B (11763350_a_at) / RFU PLEKHG5 (11743358_a_at) / Fold change /veh PLEKHG5 (11743358_a_at) / RFU ZSCAN30 (11745921_a_at) / Fold change /veh ZSCAN30 (11745921_a_at) / RFU CMKLR1 (11741424_a_at) / Fold change /veh CMKLR1 (11741424_a_at) / RFU LOC101060620 /// MAPK8IP1 (11723275_at) / Fold change /veh LOC101060620 /// MAPK8IP1 (11723275_at) / RFU SPTSSB (11747773_x_at) / Fold change /veh SPTSSB (11747773_x_at) / RFU PRSS12 (11739890_at) / Fold change /veh PRSS12 (11739890_at) / RFU BIN1 (11741810_x_at) / Fold change /veh BIN1 (11741810_x_at) / RFU WNT11 (11732464_a_at) / Fold change /veh WNT11 (11732464_a_at) / RFU C10orf10 (11716521_a_at) / Fold change /veh C10orf10 (11716521_a_at) / RFU C5orf56 (11738089_at) / Fold change /veh C5orf56 (11738089_at) / RFU CYB561 (11721691_x_at) / Fold change /veh CYB561 (11721691_x_at) / RFU ANKRD19P (11752326_a_at) / Fold change /veh ANKRD19P (11752326_a_at) / RFU OR2T12 /// OR2T33 /// OR2T8 (11738714_s_at) / Fold change /veh OR2T12 /// OR2T33 /// OR2T8 (11738714_s_at) / RFU VCAN (11748164_a_at) / Fold change /veh VCAN (11748164_a_at) / RFU JSRP1 (11732532_at) / Fold change /veh JSRP1 (11732532_at) / RFU KRTAP10-11 (11738290_x_at) / Fold change /veh KRTAP10-11 (11738290_x_at) / RFU MYO3A (11730013_a_at) / Fold change /veh MYO3A (11730013_a_at) / RFU EBF3 (11725865_a_at) / Fold change /veh EBF3 (11725865_a_at) / RFU CAMK2N1 (11719241_x_at) / Fold change /veh CAMK2N1 (11719241_x_at) / RFU C5orf56 (11738088_a_at) / Fold change /veh C5orf56 (11738088_a_at) / RFU OLFML3 (11715873_a_at) / Fold change /veh OLFML3 (11715873_a_at) / RFU LOC100653217 /// NTM (11731650_a_at) / Fold change /veh LOC100653217 /// NTM (11731650_a_at) / RFU MAPK11 (11762145_a_at) / Fold change /veh MAPK11 (11762145_a_at) / RFU FIZ1 (11724087_x_at) / Fold change /veh FIZ1 (11724087_x_at) / RFU OASL (11726364_x_at) / Fold change /veh OASL (11726364_x_at) / RFU SOX15 (11748057_x_at) / Fold change /veh SOX15 (11748057_x_at) / RFU CD79A (11719716_a_at) / Fold change /veh CD79A (11719716_a_at) / RFU HIST1H1D (11736915_at) / Fold change /veh HIST1H1D (11736915_at) / RFU CASKIN2 (11723855_a_at) / Fold change /veh CASKIN2 (11723855_a_at) / RFU LOC730098 (11760151_x_at) / Fold change /veh LOC730098 (11760151_x_at) / RFU OR4N2 (11742367_at) / Fold change /veh OR4N2 (11742367_at) / RFU PRRT2 (11749266_a_at) / Fold change /veh PRRT2 (11749266_a_at) / RFU SNX32 (11753110_a_at) / Fold change /veh SNX32 (11753110_a_at) / RFU CDHR5 (11726645_a_at) / Fold change /veh CDHR5 (11726645_a_at) / RFU RCAN1 (11760418_a_at) / Fold change /veh RCAN1 (11760418_a_at) / RFU FAM167A (11723789_a_at) / Fold change /veh FAM167A (11723789_a_at) / RFU FAM26E (11764081_at) / Fold change /veh FAM26E (11764081_at) / RFU ISYNA1 (11749810_s_at) / Fold change /veh ISYNA1 (11749810_s_at) / RFU ACY1 (11761880_at) / Fold change /veh ACY1 (11761880_at) / RFU 11764098_at / Fold change /veh 11764098_at / RFU SAMD14 (11745864_x_at) / Fold change /veh SAMD14 (11745864_x_at) / RFU NPB (11741838_a_at) / Fold change /veh NPB (11741838_a_at) / RFU TMPRSS6 (11731388_a_at) / Fold change /veh TMPRSS6 (11731388_a_at) / RFU KRTAP10-2 (11738614_at) / Fold change /veh KRTAP10-2 (11738614_at) / RFU ARHGAP8 /// PRR5-ARHGAP8 (11727945_x_at) / Fold change /veh ARHGAP8 /// PRR5-ARHGAP8 (11727945_x_at) / RFU KRTAP5-7 /// NADSYN1 (11734609_at) / Fold change /veh KRTAP5-7 /// NADSYN1 (11734609_at) / RFU RASL12 (11751679_a_at) / Fold change /veh RASL12 (11751679_a_at) / RFU CDKN2B (11736163_a_at) / Fold change /veh CDKN2B (11736163_a_at) / RFU PRF1 (11729649_at) / Fold change /veh PRF1 (11729649_at) / RFU, ZNF638 /// ZNF638-IT1 / Fold change vs veh, ZNF638 /// ZNF638-IT1 / RFU, PANK3 / Fold change vs veh, PANK3 / RFU, SH3YL1 / Fold change vs veh, SH3YL1 / RFU, ZEB2 / Fold change vs veh, ZEB2 / RFU, NRIP1 / Fold change vs veh, NRIP1 / RFU, PTTG1IP / Fold change vs veh, PTTG1IP / RFU, CAPN2 / Fold change vs veh, CAPN2 / RFU, MED14 / Fold change vs veh, MED14 / RFU, SNORA58 / Fold change vs veh, SNORA58 / RFU, C1orf63 / Fold change vs veh, C1orf63 / RFU, LRRFIP1 / Fold change vs veh, LRRFIP1 / RFU, NDUFAF7 / Fold change vs veh, NDUFAF7 / RFU, SLC12A2 / Fold change vs veh, SLC12A2 / RFU, IBTK / Fold change vs veh, IBTK / RFU, ESF1 / Fold change vs veh, ESF1 / Fold change vs veh, TMEM50B / RFU, TAOK1 / Fold change vs veh, TAOK1 / RFU, ACBD3 / Fold change vs veh, ACBD3 / RFU, TMA16 / Fold change vs veh, TMA16 / RFU, RWDD3 / Fold change vs veh, RWDD3 / RFU, BCAT1 / Fold change vs veh, BCAT1 / RFU, EDEM3 / Fold change vs veh, EDEM3 / RFU, TMEM33 / Fold change vs veh, TMEM33 / RFU, WDR75 / Fold change vs veh, WDR75 / RFU, AHCTF1 / Fold change vs veh, AHCTF1 / RFU, TFRC / Fold change vs veh, TFRC / RFU, ZDHHC17 / Fold change vs veh, ZDHHC17 / RFU, NOM1 / Fold change vs veh, NOM1 / RFU, ARL8B / Fold change vs veh, ARL8B / RFU, ZBTB11 / Fold change vs veh, ZBTB11 / RFU, TAMM41 / Fold change vs veh, TAMM41 / RFU, KIAA1704 /// LOC100996395 / Fold change vs veh, KIAA1704 /// LOC100996395 / RFU, ING1 / Fold change vs veh, ING1 / RFU, TRMT61B / Fold change vs veh, TRMT61B / RFU, FUBP3 / Fold change vs veh, FUBP3 / RFU, TP53 / Fold change vs veh, TP53 / RFU, TNKS2 / Fold change vs veh, TNKS2 / RFU, ZFP14 / Fold change vs veh, ZFP14 / RFU, ACTR2 / Fold change vs veh, ACTR2 / RFU, PPP3R1 / Fold change vs veh, PPP3R1 / RFU, PIK3R1 / Fold change vs veh, PIK3R1 / RFU, HNRNPA1 / Fold change vs veh, HNRNPA1 / RFU, RNF170 / Fold change vs veh, RNF170 / RFU, ZNF28 / Fold change vs veh, ZNF28 / RFU, RNGTT / Fold change vs veh, RNGTT / RFU, OGT / Fold change vs veh, OGT / RFU, BRD1 / Fold change vs veh, BRD1 / RFU, MARS / Fold change vs veh, MARS / RFU, ZNF655 / Fold change vs veh, ZNF655 / RFU, FAHD1 / Fold change vs veh, FAHD1 / RFU, BDP1 / Fold change vs veh, BDP1 / RFU, LRRCC1 / Fold change vs veh, LRRCC1 / RFU, ARID1A / Fold change vs veh, ARID1A / RFU, ZNF146 / Fold change vs veh, ZNF146 / RFU, ZNF330 / Fold change vs veh, ZNF330 / RFU, GPN3 / Fold change vs veh, GPN3 / RFU, C9orf123 / Fold change vs veh, C9orf123 / RFU, N4BP2L2 / Fold change vs veh, N4BP2L2 / RFU, ARFIP1 / Fold change vs veh, ARFIP1 / RFU, FAM179B / Fold change vs veh, FAM179B / RFU, BCL10 / Fold change vs veh, BCL10 / RFU, UHRF1BP1L / Fold change vs veh, UHRF1BP1L / RFU, BET1 / Fold change vs veh, BET1 / RFU, CNOT2 / Fold change vs veh, CNOT2 / RFU, ZNF268 / Fold change vs veh, ZNF268 / Fold change vs veh, ZNF507 / RFU, DGCR2 / Fold change vs veh, DGCR2 / RFU, WDSUB1 / Fold change vs veh, WDSUB1 / Fold change vs veh, HSP90B1 /// MIR3652 / RFU, ADSS / Fold change vs veh, ADSS / RFU, GK / Fold change vs veh, GK / RFU, ZNF148 / Fold change vs veh, ZNF148 / RFU, TAF9 / Fold change vs veh, TAF9 / RFU, SLC1A5 / Fold change vs veh, SLC1A5 / RFU, SLMO2 / Fold change vs veh, SLMO2 / RFU, ABCC4 / Fold change vs veh, ABCC4 / RFU, LOC101060439 /// RAP1B / Fold change vs veh, LOC101060439 /// RAP1B / RFU, RFX7 / Fold change vs veh, RFX7 / RFU, GTPBP10 / Fold change vs veh, GTPBP10 / RFU, CNEP1R1 / Fold change vs veh, CNEP1R1 / RFU, BIVM-ERCC5 /// ERCC5 / Fold change vs veh, BIVM-ERCC5 /// ERCC5 / RFU, ILF3 / Fold change vs veh, ILF3 / RFU 11762660_at / Fold change /veh 11762660_at / RFU VCAN (11757783_s_at) / Fold change /veh VCAN (11757783_s_at) / RFU DDX43 (11728927_at) / Fold change /veh DDX43 (11728927_at) / RFU KRT8 (11758188_x_at) / Fold change /veh KRT8 (11758188_x_at) / RFU NKD1 (11759106_at) / Fold change /veh NKD1 (11759106_at) / RFU SRD5A1 (11742802_a_at) / Fold change /veh SRD5A1 (11742802_a_at) / RFU TPSAB1 /// TPSB2 (11721975_s_at) / Fold change /veh TPSAB1 /// TPSB2 (11721975_s_at) / RFU GSTM3 (11746129_a_at) / Fold change /veh GSTM3 (11746129_a_at) / RFU IL23R (11737362_x_at) / Fold change /veh IL23R (11737362_x_at) / RFU TMEM51 (11727254_a_at) / Fold change /veh TMEM51 (11727254_a_at) / RFU PIWIL2 (11732686_x_at) / Fold change /veh PIWIL2 (11732686_x_at) / RFU ORM1 (11744905_x_at) / Fold change /veh ORM1 (11744905_x_at) / RFU CCDC152 (11743942_at) / Fold change /veh CCDC152 (11743942_at) / RFU ECM1 (11717891_a_at) / Fold change /veh ECM1 (11717891_a_at) / RFU IL23R (11748794_a_at) / Fold change /veh IL23R (11748794_a_at) / RFU TNFAIP8L3 (11732012_x_at) / Fold change /veh TNFAIP8L3 (11732012_x_at) / RFU MBOAT4 (11741988_at) / Fold change /veh MBOAT4 (11741988_at) / RFU 11764193_at / Fold change /veh 11764193_at / RFU TMEM53 (11763286_at) / Fold change /veh TMEM53 (11763286_at) / RFU MAGEB2 (11727129_at) / Fold change /veh MAGEB2 (11727129_at) / RFU TMEM200A (11744735_a_at) / Fold change /veh TMEM200A (11744735_a_at) / RFU CCDC152 (11751479_a_at) / Fold change /veh CCDC152 (11751479_a_at) / RFU FAM211A (11726209_a_at) / Fold change /veh FAM211A (11726209_a_at) / RFU RGS16 (11746705_a_at) / Fold change /veh RGS16 (11746705_a_at) / RFU VCAN (11755009_s_at) / Fold change /veh VCAN (11755009_s_at) / RFU RHOB (11743442_s_at) / Fold change /veh RHOB (11743442_s_at) / RFU RGS16 (11720943_a_at) / Fold change /veh RGS16 (11720943_a_at) / RFU RGS16 (11720944_at) / Fold change /veh RGS16 (11720944_at) / RFU, VPS4B / Fold change vs veh, VPS4B / RFU, CREB1 / Fold change vs veh, CREB1 / RFU, DNAJC13 / Fold change vs veh, DNAJC13 / RFU, GNAQ / Fold change vs veh, GNAQ / RFU, CDK5R1 / Fold change vs veh, CDK5R1 / RFU, ZRANB3 / Fold change vs veh, ZRANB3 / RFU, CUL4A / Fold change vs veh, CUL4A / RFU, CCNY / Fold change vs veh, CCNY / RFU, UFL1 / Fold change vs veh, UFL1 / RFU, COG3 / Fold change vs veh, COG3 / RFU, DIAPH2 / Fold change vs veh, DIAPH2 / RFU, SKA2 / Fold change vs veh, SKA2 / RFU, AFF3 / Fold change vs veh, AFF3 / RFU, LMF1 / Fold change vs veh, LMF1 / RFU, IPO11 / Fold change vs veh, IPO11 / RFU, DFFB / Fold change vs veh, DFFB / RFU, FOXP1 / Fold change vs veh, FOXP1 / RFU, CARD8 / Fold change vs veh, CARD8 / RFU, STRN3 / Fold change vs veh, STRN3 / RFU, ADK / Fold change vs veh, ADK / RFU, RASSF2 / Fold change vs veh, RASSF2 / RFU, WIPF1 / Fold change vs veh, WIPF1 / RFU, LARP1B / Fold change vs veh, LARP1B / RFU, RASA1 / Fold change vs veh, RASA1 / RFU, RB1 / Fold change vs veh, RB1 / RFU, PPFIA1 / Fold change vs veh, PPFIA1 / RFU, MAT2A / Fold change vs veh, MAT2A / RFU, CCT5 / Fold change vs veh, CCT5 / RFU, WDR92 / Fold change vs veh, WDR92 / RFU, CUX1 / Fold change vs veh, CUX1 / RFU, TTC7A / Fold change vs veh, TTC7A / RFU, TMEM135 / Fold change vs veh, TMEM135 / RFU, DEPTOR / Fold change vs veh, DEPTOR / RFU, CPM / Fold change vs veh, CPM / RFU, DNAJB6 / Fold change vs veh, DNAJB6 / RFU, CACNA2D3 / Fold change vs veh, CACNA2D3 / RFU, DTX4 / Fold change vs veh, DTX4 / RFU, TFCP2 / Fold change vs veh, TFCP2 / RFU, GMCL1 /// GMCL1P1 / Fold change vs veh, GMCL1 /// GMCL1P1 / RFU, AEBP2 / Fold change vs veh, AEBP2 / RFU, SNHG1 /// SNORD22 /// SNORD25 /// SNORD26 /// SNORD27 /// SNORD28 /// SNORD29 /// SNORD31 / Fold change vs veh, SNHG1 /// SNORD22 /// SNORD25 /// SNORD26 /// SNORD27 /// SNORD28 /// SNORD29 /// SNORD31 / Fold change (Aza/veh), C12orf56 (ProbeSet 11735607_a_at) / Fold change (ACY-1035/veh), C12orf56 (ProbeSet 11735607_a_at) / Fold change (Aza/veh), FGFR1OP (ProbeSet 11751329_s_at) / Fold change (ACY-1035/veh), FGFR1OP (ProbeSet 11751329_s_at) / Fold change (Aza/veh), VPS36 (ProbeSet 11739960_a_at) / Fold change (ACY-1035/veh), VPS36 (ProbeSet 11739960_a_at) / RFU SYPL1 (11715823_x_at) / Fold change /veh SYPL1 (11715823_x_at) / RFU IGFBP7 (11715501_s_at) / Fold change /veh IGFBP7 (11715501_s_at) / RFU REEP3 (11722064_at) / Fold change /veh REEP3 (11722064_at) / RFU IGLL1 (11728026_x_at) / Fold change /veh IGLL1 (11728026_x_at): dose or concentration left out as unconfirmed
Settings: ProbeSet 11753623_s_at; LIST D

Nc1ncn([C@@H]2O[C@H](CO)[C@@H](O)[C@H]2O)c(=O)n1 [azacitidine]
Fold change vs veh, LOC101060439 /// RAP1B: 0.77
